Laboratory results published in US20260207604A1, “COMPOUND AND USE THEREOF” (ONQUALITY PHARMACEUTICALS CHINA LTD., priority 2022, published 2026).

Experiments:
CDK7/cyclin H = CDK7/cyclin H (Homo sapiens, UniProt P50613); experiment: KinaseProfile radiometric protein kinase assay, CDK7/cyclin H; format: biochemical
Experimental: (§1) The KinaseProfile radiometric protein kinase assay was used to evaluate the inhibitory activity of the compounds against CDK2/cyclin E, CDK4/cyclin D, CDK6/cyclin D, CDK7/cyclin H and CDK9/cyclin T.
(§2) The compounds were prepared in 100% DMSO at a final 50× stock concentration. The working stock solution was added as the first component to the assay wells. CDK2/cyclin E, CDK4/cyclin D, CDK6/cyclin D, CDK7/cyclin H, and CDK9/cyclin T were added in their respective kinase buffers: (CDK4: 8 mM MOPS pH 7.0, 0.2 mM EDTA, 0.03% BSA, 0.03% Tween 20, 20 mM DTT, and 0.2 mg/ml Rb fragment, 10 mM Magnesium acetate; CDK2, CDK6: 8 mM MOPS pH 7.0, 0.2 mM EDTA, 0.1 mg/mL histone H1, 10 mM Magnesium acetate; CDK7: 8 mM MOPS pH 7.0, 0.2 mM EDTA, 500 μM peptide, 10 mM Magnesium acetate; CDK9: 8 mM MOPS pH 7.0, 0.2 mM EDTA, 100 μM […], 10 mM Magnesium acetate) and [γ-^33 P-ATP] was included in the reaction mixture. The reaction was initiated by the addition of the Mg/ATP mixture and incubated at room temperature for 40 minutes. The reaction was terminated by the addition of 0.5% phosphoric acid. Then, 10 μL of the reaction mixture was spotted onto P30 filter pads, washed four times (1 minute each) with 0.425% phosphoric acid, followed by a single wash with methanol. The pads were then dried and counted. The data were recorded, inhibition rates were calculated, and IC50 values were determined accordingly. Table 2 summarizes the in vitro enzymatic inhibitory activity of the compounds of the present application.

[1] = tested on: 5-FU-induced diarrhea model; experiment: 5-FU-induced diarrhea model, 5-FU 1-day model; format: in vivo, Balb/c mice; conditions: 5-FU 175 mg/kg once a day, mice
From the text: The 5-FU-induced diarrhea model was used as an experimental model of the present invention to evaluate the in vivo activity of the compounds.
Balb/c mice (20-25 g, 7-8 weeks old, Jihui) were acclimated for one week and then randomly assigned to 3 groups (n=10 per group): control group, 5-FU group, and CDK inhibitor group. The control group received the same vehicle as the CDK inhibitor group by oral gavage, followed by injection of the same vehicle as the 5-FU group. The 5-FU group received the same vehicle by oral gavage as the CDK inhibitor group, followed by 5-FU injection. The CDK inhibitor group received oral administration of the CDK inhibitor, followed by 5-FU injection. From day 1 to day 7, the severity of diarrhea was assessed for each mouse according to the diarrhea scoring system.
The diarrhea scoring system was based on the method by Akinobu Kurita (Cancer Chemother Pharmacol 2000; 46:211-20), Grade 0: normal stool; Grade 1: mild diarrhea, slightly soft stool and wet stool; Grade 2: moderate diarrhea, loose stool with slight perianal staining; Grade 3: severe diarrhea, loose watery stool with severe perianal staining.
The diarrhea relief rate (%) was calculated as follows: […]

CDK6/cyclin D = CDK6/cyclin D (Homo sapiens, UniProt Q00534); experiment: KinaseProfile radiometric protein kinase assay, CDK6/cyclin D; format: biochemical
Chain of CDK6/cyclin D (Q00534 whole entry): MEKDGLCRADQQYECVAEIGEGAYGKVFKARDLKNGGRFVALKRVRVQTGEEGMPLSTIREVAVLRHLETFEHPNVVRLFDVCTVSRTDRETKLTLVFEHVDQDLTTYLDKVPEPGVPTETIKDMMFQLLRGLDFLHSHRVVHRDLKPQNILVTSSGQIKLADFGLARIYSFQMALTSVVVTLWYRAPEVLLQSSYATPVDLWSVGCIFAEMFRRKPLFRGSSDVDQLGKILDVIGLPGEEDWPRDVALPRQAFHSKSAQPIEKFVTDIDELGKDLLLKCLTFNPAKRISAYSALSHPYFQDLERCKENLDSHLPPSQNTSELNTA
Chain of CDK6/cyclin D (P30281 whole entry partner): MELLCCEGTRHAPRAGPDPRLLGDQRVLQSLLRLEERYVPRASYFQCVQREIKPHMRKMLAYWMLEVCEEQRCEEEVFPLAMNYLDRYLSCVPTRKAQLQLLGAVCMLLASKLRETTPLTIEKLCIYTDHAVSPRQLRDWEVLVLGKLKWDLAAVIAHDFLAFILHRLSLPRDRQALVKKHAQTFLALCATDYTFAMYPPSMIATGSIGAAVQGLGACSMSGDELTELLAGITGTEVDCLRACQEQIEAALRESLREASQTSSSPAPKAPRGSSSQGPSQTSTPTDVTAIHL
Experimental: as §1, §2

[2] = tested on: Human colorectal cancer COLO205 cells; experiment: Cell apoptosis assay (Caspase-Glo 3/7), 5-FU-induced apoptosis; format: cell-based
Experimental: The Caspase-Glo® 3/7 assay was employed to evaluate the protective effect of the compounds of the present invention against 5-fluorouracil (5-FU)-induced apoptosis. Human colorectal cancer COLO205 cells were cultured in RPMI 1640 medium (Invitrogen) in an incubator at 37° C. with 5% CO2.
COLO205 cells were seeded in 96-well plates at a density of 4,000 cells per well and incubated overnight. On the following day, serially diluted concentrations of Compound 1 were added to the wells and incubated for 16 hours. Afterward, 5-FU was added and the cells were incubated for an additional 48 hours. Subsequently, Caspase-Glo® 3/7 reagent (100 μL) was added to each well. The cells were mixed on an orbital shaker for 10 min and incubated at room temperature for 2 h. After an additional 10-minute incubation, the plate was measured using the Envision instrument and the data was processed. Relief rate (%)=(5-FU group−CDK group)/5-FU group×100%.

CDK9/cyclin T = CDK9/cyclin T (Homo sapiens, UniProt P50750); experiment: KinaseProfile radiometric protein kinase assay, CDK9/cyclin T; format: biochemical
Chain of CDK9/cyclin T (P50750 whole entry): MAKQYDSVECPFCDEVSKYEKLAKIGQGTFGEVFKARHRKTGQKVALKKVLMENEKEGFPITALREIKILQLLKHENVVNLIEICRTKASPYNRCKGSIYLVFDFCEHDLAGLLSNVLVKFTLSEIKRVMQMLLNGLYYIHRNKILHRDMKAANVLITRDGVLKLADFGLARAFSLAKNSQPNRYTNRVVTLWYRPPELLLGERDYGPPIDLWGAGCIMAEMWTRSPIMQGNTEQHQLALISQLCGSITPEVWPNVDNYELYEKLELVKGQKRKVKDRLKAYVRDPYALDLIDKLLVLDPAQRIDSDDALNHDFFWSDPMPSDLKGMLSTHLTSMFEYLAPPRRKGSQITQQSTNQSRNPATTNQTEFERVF
Chain of CDK9/cyclin T (O60563 whole entry partner): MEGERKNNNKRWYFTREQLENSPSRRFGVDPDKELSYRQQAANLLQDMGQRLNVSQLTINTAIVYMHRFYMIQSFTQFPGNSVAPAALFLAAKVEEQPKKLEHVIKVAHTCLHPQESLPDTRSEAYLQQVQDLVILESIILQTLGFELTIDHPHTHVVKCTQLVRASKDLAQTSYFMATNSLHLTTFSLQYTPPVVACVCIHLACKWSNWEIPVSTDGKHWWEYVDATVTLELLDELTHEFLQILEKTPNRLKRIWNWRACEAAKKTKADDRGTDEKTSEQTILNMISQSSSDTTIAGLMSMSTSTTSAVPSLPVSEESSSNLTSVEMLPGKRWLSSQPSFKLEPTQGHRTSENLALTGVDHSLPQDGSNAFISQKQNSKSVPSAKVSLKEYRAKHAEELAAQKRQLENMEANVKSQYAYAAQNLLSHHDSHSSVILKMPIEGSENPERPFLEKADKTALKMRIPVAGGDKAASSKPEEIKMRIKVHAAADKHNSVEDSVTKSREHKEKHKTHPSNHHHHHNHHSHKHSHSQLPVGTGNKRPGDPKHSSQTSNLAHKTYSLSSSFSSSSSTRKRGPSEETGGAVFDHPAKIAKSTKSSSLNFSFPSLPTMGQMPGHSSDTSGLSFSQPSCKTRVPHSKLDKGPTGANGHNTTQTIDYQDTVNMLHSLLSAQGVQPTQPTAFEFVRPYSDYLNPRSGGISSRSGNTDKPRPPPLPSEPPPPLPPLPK
Experimental: as §1, §2

[3] = tested on: Irinotecan-induced diarrhea model; experiment: Irinotecan-induced diarrhea model; format: in vivo, Balb/c mice; conditions: irinotecan 230 mg/kg once a day, 1 day, mice
From the text: Irinotecan-induced diarrhea and/or constipation models were employed as additional in vivo experimental models to evaluate the activity of the compounds of the present application.
Balb/c mice (20-25 g, 7-8 weeks old, Jihui) were acclimated for one week and then randomly assigned to 3 groups (n=10 per group): control group, irinotecan group, and CDK inhibitor group. Control group: received the same vehicle as the CDK inhibitor group by oral gavage, followed by injection of the same vehicle as the irinotecan group; irinotecan group: received the same vehicle by oral gavage as the CDK inhibitor group, followed by injection of irinotecan; CDK inhibitor group: received oral administration of the CDK inhibitor, followed by injection of irinotecan.
In the irinotecan group, approximately 6 to 9 out of 10 mice developed diarrhea. From Day 1 to Day 7, the severity of diarrhea in each mouse was evaluated using the following scoring criteria:
The diarrhea scoring system was based on the method by Akinobu Kurita (Cancer Chemother Pharmacol 2000; 46:211-20), Grade 0: normal stool; Grade 1: mild diarrhea, slightly soft stool and wet stool; Grade 2: moderate diarrhea, loose stool with slight perianal staining; Grade 3: severe diarrhea, loose watery stool with severe perianal staining. Calculate the diarrhea Relief rate of compound treatment. Relief rate (%)=(diarrhea score of irinotecan group−diarrhea score of CDK inhibitor group)/diarrhea score of irinotecan group×100%.

[4] = 5 mg/kg oral, 4 hours before and 8 hours after irinotecan
[5] = 25 mg/kg oral, 6 hours before and 6 hours after irinotecan
[6] = 50 mg/kg oral, 4 hours before and 8 hours after irinotecan
[7] = 100 mg/kg oral, 6 hours before and 6 hours after irinotecan
[8] = 25 mg/kg oral, 8 hours before 5-FU and 4 hours after 5-FU

Chain of CDK7/cyclin H (P50613 whole entry): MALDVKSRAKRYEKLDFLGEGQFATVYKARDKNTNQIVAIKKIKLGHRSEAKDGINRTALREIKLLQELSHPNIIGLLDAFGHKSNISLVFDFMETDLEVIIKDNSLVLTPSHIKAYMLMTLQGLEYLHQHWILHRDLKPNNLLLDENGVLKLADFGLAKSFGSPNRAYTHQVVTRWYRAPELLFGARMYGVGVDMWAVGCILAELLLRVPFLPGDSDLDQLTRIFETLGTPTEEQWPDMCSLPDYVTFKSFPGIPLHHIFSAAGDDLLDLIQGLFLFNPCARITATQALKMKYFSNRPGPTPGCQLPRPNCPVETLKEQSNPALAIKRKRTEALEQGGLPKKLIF
Chain of CDK7/cyclin H (P51946 whole entry partner): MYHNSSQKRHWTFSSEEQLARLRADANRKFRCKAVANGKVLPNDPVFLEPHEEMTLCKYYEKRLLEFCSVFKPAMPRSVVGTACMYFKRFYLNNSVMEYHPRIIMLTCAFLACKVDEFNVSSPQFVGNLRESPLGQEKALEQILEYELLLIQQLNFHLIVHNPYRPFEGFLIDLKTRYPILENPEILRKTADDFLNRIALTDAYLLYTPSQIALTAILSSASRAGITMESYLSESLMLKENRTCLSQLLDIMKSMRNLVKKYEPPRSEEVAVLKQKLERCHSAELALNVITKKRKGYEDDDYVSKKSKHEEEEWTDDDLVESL
Chain of CDK7/cyclin H (P51948 whole entry partner): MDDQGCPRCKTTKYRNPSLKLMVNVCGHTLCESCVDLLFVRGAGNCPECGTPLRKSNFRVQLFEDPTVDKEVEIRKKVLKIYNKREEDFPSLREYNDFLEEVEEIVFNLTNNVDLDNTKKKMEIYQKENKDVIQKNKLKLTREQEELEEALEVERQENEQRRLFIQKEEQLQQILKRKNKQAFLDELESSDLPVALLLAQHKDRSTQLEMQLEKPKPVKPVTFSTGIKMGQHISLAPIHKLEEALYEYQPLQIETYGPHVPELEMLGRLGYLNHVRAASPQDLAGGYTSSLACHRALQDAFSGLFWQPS

CC(=O)c1c(C)c2c(n(C3CCCC3)c1=O)=NC(Nc1ccc(N3CCN(S(=O)(=O)NCCN)CC3)cn1)NC=2 (stereo not shown) [Compound 1]
IC50 (CDK7/cyclin H): > 10 µM
diarrhea relief rate ([1]; 5 mg/kg oral, 8 hours before 5-FU and 4 hours after 5-FU): 50%
diarrhea relief rate ([1]; 10 mg/kg oral, 6 hours before and 6 hours after 5-FU): 40%
diarrhea relief rate ([1]; 25 mg/kg oral, 12 hours before 5-FU): 85%
diarrhea relief rate ([1]; 50 mg/kg oral, 8 hours before 5-FU and 4 hours after 5-FU): 60%
diarrhea relief rate ([1]; 75 mg/kg oral, 6 hours before and 6 hours after 5-FU): 50%
diarrhea relief rate ([1]; 100 mg/kg oral, 8 hours before 5-FU and 4 hours after 5-FU): 75%
IC50 (CDK6/cyclin D): < 0.05 µM
Relief rate of 5-FU -induced cell apoptosis ([2]; concentration 0.1 μM): 30%
Relief rate of 5-FU -induced cell apoptosis ([2]; concentration 1 μM): 60%
Relief rate of 5-FU -induced cell apoptosis ([2]; concentration 5 μM): 80%
Relief rate of 5-FU -induced cell apoptosis ([2]; concentration 25 μM): 40%
IC50 (CDK9/cyclin T): > 1 µM
diarrhea relief rate [3, 4]: 30%
diarrhea relief rate ([3]; 10 mg/kg oral, 6 hours before and 6 hours after irinotecan): 33.3%
diarrhea relief rate [3, 5]: 50%
diarrhea relief rate [3, 6]: 37.5%
diarrhea relief rate ([3]; 100 mg/kg oral, 4 hours before and 8 hours after irinotecan): 30%
diarrhea relief rate [3, 7]: 20%

CC(=O)c1c(C)c2cnc(Nc3ccc(N4CCN(S(=O)(=O)NCC(C)(C)N)CC4)cn3)nc2n(C2CCCC2)c1=O [Compound 2]
IC50 (CDK7/cyclin H): > 3 µM
diarrhea relief rate [1, 8]: 60%
diarrhea relief rate ([1]; 25 mg/kg oral, 12 hours before and 12 hours after 5-FU): 40%
diarrhea relief rate ([1]; 50 mg/kg oral, 6 hours before and 6 hours after 5-FU): 60%
diarrhea relief rate ([1]; 100 mg/kg oral, 24 hours before 5-FU and 0 hours after 5-FU): 40%
IC50 (CDK6/cyclin D): < 0.05 µM
Relief rate of 5-FU -induced cell apoptosis ([2]; concentration 1 μM): 40%
Relief rate of 5-FU -induced cell apoptosis ([2]; concentration 5 μM): 50%
Relief rate of 5-FU -induced cell apoptosis ([2]; concentration 10 μM): 70%
Relief rate of 5-FU -induced cell apoptosis ([2]; concentration 50 μM): 40%
IC50 (CDK9/cyclin T): > 1 µM
diarrhea relief rate ([3]; 25 mg/kg oral, 4 hours before and 8 hours after irinotecan): 70%
diarrhea relief rate [3, 5]: 60%
diarrhea relief rate ([3]; 50 mg/kg oral, 8 hours before irinotecan and 4 hours after irinotecan): 75%
diarrhea relief rate ([3]; 100 mg/kg oral, 12 hours before irinotecan): 50%

CC(=O)c1c(C)c2cnc(Nc3ccc(N4CCN(S(=O)(=O)NCC(C)N)CC4)cn3)nc2n(C2CCCC2)c1=O (stereo not shown) [Compound 3]
IC50 (CDK7/cyclin H): > 10 µM
diarrhea relief rate ([1]; 10 mg/kg oral, 10 hours before 5-FU and 2 hours after 5-FU): 50%
diarrhea relief rate ([1]; 25 mg/kg oral, 2 hours before 5-FU and 10 hours after 5-FU): 40%
diarrhea relief rate [1, 8]: 60%
diarrhea relief rate ([1]; 150 mg/kg oral, 12 hours before 5-FU and 0 hours after 5-FU): 50%
IC50 (CDK6/cyclin D): < 0.1 µM
Relief rate of 5-FU -induced cell apoptosis ([2]; concentration 0.1 μM): 20%
Relief rate of 5-FU -induced cell apoptosis ([2]; concentration 1 μM): 40%
Relief rate of 5-FU -induced cell apoptosis ([2]; concentration 5 μM): 40%
Relief rate of 5-FU -induced cell apoptosis ([2]; concentration 25 μM): 30%
IC50 (CDK9/cyclin T): > 3 µM
diarrhea relief rate [3, 4]: 25%
diarrhea relief rate ([3]; 25 mg/kg oral, 10 hours before and 2 hours after irinotecan): 60%
diarrhea relief rate [3, 6]: 70%
diarrhea relief rate [3, 7]: 50%

CC(=O)c1c(C)c2cnc(Nc3ccc(N4CCN(S(=O)(=O)NCCCN)CC4)cn3)nc2n(C2CCCC2)c1=O [Compound 4]
IC50 (CDK7/cyclin H): > 3 µM
diarrhea relief rate ([1]; 10 mg/kg oral, 8 hours before 5-FU and 4 hours after 5-FU): 25%
diarrhea relief rate ([1]; 25 mg/kg oral, 6 hours before and 6 hours after 5-FU): 80%
diarrhea relief rate ([1]; 50 mg/kg oral, 12 hours before 5-FU): 70%
diarrhea relief rate ([1]; 10 0 mg/kg oral, 8 hours before 5-FU and 4 hours after 5-FU): 25%
IC50 (CDK6/cyclin D): < 0.05 µM
Relief rate of 5-FU -induced cell apoptosis ([2]; concentration 10 μM): 40%
Relief rate of 5-FU -induced cell apoptosis ([2]; concentration 25 μM): 50%
Relief rate of 5-FU -induced cell apoptosis ([2]; concentration 50 μM): 50%
Relief rate of 5-FU -induced cell apoptosis ([2]; concentration 100 μM): 30%
IC50 (CDK9/cyclin T): > 3 µM
diarrhea relief rate ([3]; 25 mg/kg oral, 2 hours before and 10 hours after irinotecan): 30%
diarrhea relief rate [3, 6]: 60%
diarrhea relief rate ([3]; 50 mg/kg oral, 6 hours before and 6 hours after irinotecan): 60%
diarrhea relief rate ([3]; 150 mg/kg oral, 10 hours before irinotecan): 45%
